In patent US20160089371A1, “Combination of Kinase Inhibitors and Uses Thereof” (INTELLIKINE, LLC, priority 2013, published 2016):

Assays:
PTEN mutant cells = assay: Western blot of Akt, S6, 4EBP phosphorylation in PTEN mutant cells; assay type: cell-based; details: PTEN-mutant cell line; FIG. 12B
B cell function = B cell function in vivo, antibody production after TNP-Ficoll immunization; details: mice immunized with TNP-Ficoll; 70 mg/kg GDC0941; 30, 60 or 120 mg/kg Compound A; 7 days; FIG. 8
Procedure: Mice were immunized with TNP-Ficoll and treated with 1) vehicle; 2) 70 mg/kg GDC0941; 3) 30 mg/kg Compound A; 4) 60 mg/kg Compound A; or 5) 120 mg/kg Compound A for 7 days. Antibody production was measured as a percentage of control group that were treated with vehicle.

[1] = system: PI3K pathway in MDA-MB-361, MDA-MB-453 and SK-Br3 cells; assay: PI3K pathway Western blot in cell lines with elevated PI3Kα activity; assay type: cell-based, human; details: 2 h treatment; MDA-MB-361, MDA-MB-453, SK-Br3
Procedure: Cells comprising one or more mutations in PI3Kα, including but not limited to breast cancer cells (e.g., MDA-MB-361, T47D, SKOV-3), and cells comprising one or more mutations in PTEN including but not limited to prostate cancer cells (e.g., PC3), are typically grown in cell growth media such as DMEM supplemented with fetal bovine serum and/or antibiotics, and grown to confluency. Cells are then treated with various concentrations of test compound for about 2 hours and subsequently lysed in cell lysis buffer. Lysates are subjected to SDS-PAGE followed by Western blot analysis to detect downstream signaling markers, including but not limited to pAKT(S473), pAKT(T308), pS6, and p4E-BP1.
MDA-MB-361(PIK3CA-E545K), MDA-MB-453 (PIK3CA-H1047R), and SK-Br3 (Her2) cells were treated with various concentrations of Compound A for 2 h and subsequently lysed. Lysates were subjected to SDS-PAGE followed by Western blot analysis as described above to detect downstream pathway markers.

[2] = system: MDA-MB-361 (PI3Kα/HER2 carcinoma) tumors; assay: In vivo efficacy in xenogenic mouse model of breast cancer; parameters: species or system nude mice; details: 70 mg/kg Pan-PI3K inhibitor; 60 mg/kg compound A
Procedure: Blood glucose was monitored periodically following administration of treatment.
Treatment of tumors (MDA-MB-361) with compounds was discontinued on Day 30. Tumors were measured every 2-5 days.

[3] = system: 786-O cells (non-mutated PI3Kα) tumors; assay: 786-O human kidney carcinoma xenograft; assay type: in vivo, mice; details: Compound A orally 60 and 120 mg/kg; 1 mg/kg (QD) oral solution
Procedure: Compound A was administered orally at 60 and 120 mg/kg and compound A was administered orally as a solution at 1 mg/kg (QD). For example, a PI3Kα inhibitor is compared to a kinase inhibitor with specificity for mTor. […] FIG. 6C also provides biochemical potency data for the two compared inhibitors. PI3 Kinase α, β, γ and δ activity was assayed using the PI3 Kinase HTRF® assay kit (Millipore Corporation). Purified recombinant PI3Kα, PI3Kβ, PI3Kγ and PI3Kδ were obtained from Millipore Corporation. […] Emission ratios were converted into percent inhibitions and imported into GraphPad Prism software. […] IC50 values were determined using a nonlinear regression model available in GraphPad Prism 5.

[4] = system: PI3 kinase signaling pathway in MDA-MB-361, HCC-1419 and NCI-H1048 cells; assay: Cellular signaling immunoblot in human tumor cell lines; assay type: cell-based; details: single agents; Compound B 5-100 nM, Compound A 1 and 3 μM; 2 or 24 hours
Procedure: Compound A was synthesized at Intellikine and was supplied as a stock of 10 mM in 100% DMSO and diluted in the respective cell line's growth media.
Prior to treatment, cells were plated at 2×10^5 cells/well in 12-well plates in normal growth media and grown to 80% confluence. Cells were treated for 2 or 24 hours in a CO2 incubator set to 37° C. with normal growth media containing inhibitor diluted in DMSO.
Media was aspirated, cells were washed with 1×PBS, Ice cold 1× Cell Lysis Buffer was prepared from 10× stock and 100 μM 4-(2-Aminoethyl) benzenesulfonyl fluoride hydrochloride (AEBSF) andlmM sodium orthovanadate […] was added. Cells were lysed by adding 1× Cell Lysis Buffer (100 μL per well of 12-well plate of cells). Cells incubated on ice for 20 to 30 minutes to allow complete lysis, and lysates were transferred to microcentrifuge tubes, sonicated for 10 seconds, and subjected to microcentrifugation at 14,000×g for 10 minutes at 4° C. Cleared supernatants were transferred to fresh tubes, and stored at −20° C. for Western blot analysis. […] Molecular weight markers were loaded, the gel electrophoresed at 200V for 40 minutes.
The gels were electrotransferred to nitrocellulose membranes, and incubated in blocking buffer (Tris buffered saline plus 0.5% Tween-20 (TBS/T)+5% bovine serum albumin (BSA)) for 1 hour at room temperature. […]

[5] = Steady-state blood glucose (Example 42); assay type: in vivo, Mus musculus; details: Compound B 0.3 mg/kg, Compound A 60 mg/kg, alone or combined; returned to normal within an hour of dosing
Procedure: Blood glucose levels were measured via a tail knick using a FreeStyle® handheld blood glucose monitor (Abbott Laboratories) at 5, 15, 30, 60, and 90 minutes after the last dose (Day 29).

steady-state blood glucose level after the last dose (Day 29) [5]: slight increase
SMILES: Nc1nc2cc(-c3ccc4ncc(C(=O)N5CCOCC5)n4c3)ccc2o1 [Compound A]
inhibition of Akt phosphorylation at serine 473 (PTEN mutant cells): reduced inhibition | B cell function in vivo (antibody production, percentage of vehicle control) (B cell function): not | inhibition of the PI3K pathway (Western blot, FIG. 11) [1]: inhibition of the PI3K pathway | tumor weight in breast cancer model (FIG. 9 left panel) [2]: reduction in tumor weight | inhibition of kinase activity and tumor growth in 786-O model (FIG. 6) [3]: decreased activity | phosphorylation of downstream targets AKT, S6 and 4E-BP1 (Western blot, FIG. 15) [4]: potently inhibited
